# Experimental data as given in US6080780A, “Use of nitroflavonoids for the treatment of anxiety” (University of Strathclyde, priority 1995, dated 2000).
# Entries after “also recorded” stand apart in the source; their conditions may differ. Like-named read-outs stand apart in the source and are kept apart here.
# Tests used:
# α1 adrenergic receptors = assay: [3H]-prazosin binding; details: 20 μM; data not shown
# Description: (§1) Additional binding studies were performed as described elsewhere: [^3 ]-prazosin binding for α1 adrenergic receptors (Medina et al., 1984), [^3 H]-dihidroalprenolol binding for β adrenergic receptors (Medina et al. 1984), [^3 H]-quinuclinidyl benzylate binding for muscarinic cholinergic receptors (Jerusalinksy et al., 1983), [^3 H]-muscimol binding for GABAλ receptors (Medina et al., 1983) and [^3 H]-8-Hydroxydipropylaminotetralin ([^3 H]--OH--DPAT) binding for serotonin (5-HTlλ) receptors (Nenonene et al., 1984).
# β adrenergic receptors = assay: [3H]-dihidroalprenolol binding; details: 20 μM; data not shown
# Description: as §1
# [1] = target: central benzodiazepine receptors; assay: Autoradiographic [3H]-FNZ displacement on rat brain sections; type: binding, rat (Wistar); details: for Ki: n=3, read-out: Ki, [3H]-FNZ binding, autoradiography
# Description: Wistar rats were decapitated and brains rapidly removed. Sagittal sections (15 μm in thickness) were prepared at -20° C. using a microtome-cryostat. The tissue slices were kept frozen at -70° C. until used. For DNF displacement curves to [^3 H]--FNZ binding (0.65 nM), tissue sections were incubated for 60 min at 4° C. in 25 mM Tris HCl buffer, pH 7.4, in presence of different concentrations of DNF (1-600 nM). For non-specific binding we used 10 μM FNZ. The incubation was terminated by rinsing the sections for two min in cold buffer. Sections were briefly dipped in cold distilled water and dried rapidly under a stream of cold air (Niddam et al., 1987).
# Autoradiograms were generated by apposing the slide-mounted tissue section to tritium-sensitive film (Hyperfilm Amersham) in a light-proof X-ray cassette at 4° C. for two weeks.
# The optical densities from different brain regions were converted first to radioactive units and then to fmol/mm^2 using the [^3 H] standards on the film with the aid of a computerized image densitometric analysis system (MCID 4.02). The values were normalized and the Ki values were determined using a computerized program (Graph-Pad Prism) Bernabeu et al., 1995; Cammarota et al., 1995).
# mice [2] = assay: Locomotor activity test in mice; type: in vivo, male Swiss mice; details: i.p.
# Description: (§2) Adult male Wistar rats weighing 250 g were used for biochemical experiments. Adult male Swiss male weighing 25-30 g were used for pharmacological assays except for inhibitory avoidance and tail flick tests were done in rats. Animals were housed in a controlled environment, with free access to food and water and maintained on a 12 h/12 h day/night cycle.
# (§3) An Opto-varimex® apparatus was used according to Viola et al. (1994). The apparatus discriminates between total and ambulatory activities. An increase in the number of transitions through the beams reflects augmented locomotor activity. In this and all following tests in mice, animals were i.p. injected with the vehicle, or with DNF 20 min before the beginning of the tests. In each session, control mice were tested in parallel with those animals receiving drug treatment.
# mice [3] = assay: Elevated plus maze test in mice (Section 2); type: in vivo, male Swiss mice
# Description: as §2, §3
# The test was performed in the same session immediately after the locomotor activity measurement (Viola et al., 1994; Wolfman et al., 1994). […] A series of experiments with the injection of the selective central benzodiazepine receptor antagonist Ro 15-1788 (File and Pellow, 1986) was also carried out.
# [4] = Sodium thiopental-induced sleeping time; type: in vivo, mice; details: mouse, in vivo; thiopental sleep, locomotor activity and holeboard together; read-out: doses with slight depressant action relative to anxiolytic doses
# Description: (§4) Sodium thiopental (Abbott) (22 mg/kg) was i.p. injected 15 min after vehicle or DNF. The disappearance and reappearance of the righting reflex were considered indications of latency and duration of sleep, respectively (Anca et al., 1993).
# (§5) Mice were injected with sodium thiopental (TP, 22 mg/kg i.p.) 15 min after vehicle (VEH) or 6,3'-dinitroflavone (DNF). The ceiling of sleeping time was 1800 s. Data are expressed in medians (interquartile range). ^3 number of animals per group.
# mice [5] = assay: Sodium thiopental-induced sleeping time; type: in vivo; details: for Sleeping Time / Latency: median (interquartile range); for Sleeping Time: VEH 190; for Latency: VEH 233
# Description: as §4, §5
# mice [6] = assay: Pentylenetetrazole (PTZ)-induced seizures; type: in vivo
# Description: The effects of DNF on pentylenetetrazole (PTZ)--induced convulsions were evaluated according to Medina et al., (1990) with slight modifications. PTZ (200 mg/kg) was administered i.p. to mice 15 min after injection of drug or vehicle. The number of mice presenting clonic convulsions was determined.
# Data are expressed as the percentage of mice presenting clonic or tonic-clonic seizures. ^3 number of animals per group.
# rats = assay: Tail-flick test in rats; type: in vivo, rat
# Description: This test was performed according to Siegfried et al. (1987). Analgesia was assessed with a tail-flick apparatus. Rats were wrapped in a towel and placed on the apparatus; the light source positioned below the tail was focused on a point 2.3 cm rostral to the tip of the tail. Deflection of the tail activated a photocell and automatically terminated the trial. Light intensity was adjusted so as to obtain a baseline tail-flick latency (TFL) of 3-6 s. A cut-off time of 10 s was used to prevent tissue damage. Briefly, the general procedure was as follows: a baseline TFL value was obtained for each animal. Following this, the rats were placed alone in a waiting cage. TFL value was measured 1 h after an i.p. injection of vehicle or DNF.
structure (smiles),measurement,setting,value
"O=c1cc(-c2cccc([N+](=O)[O-])c2)oc2ccc([N+](=O)[O-])cc12 [Compound (II), 6,3'-dinitroflavone]",displacement of [3H]-prazosin binding,α1 adrenergic receptors,did not displace
same,displacement of [3H]-dihidroalprenolol binding,β adrenergic receptors,did not displace
same,Ki,[1]; dentate gyrus,0.0822 ± 0.0076 µM
same,Ki,[1]; parietal cortex,0.0301 ± 0.0026 µM
same,"potency to displace [3H]-FNZ, cerebellum vs dentate gyrus",[1]; ratio,5 times
same,Ki,[1]; striatum,0.0537 ± 0.0073 µM
same,spontaneous ambulatory locomotion,"mice [2]; 0.3 mg/kg, p<0.05",slight increase
same,reduction in the locomotion,"mice [2]; 10 mg/kg, p<0.01",55%
same,spontaneous ambulatory locomotion,mice [2]; up to 3 mg/kg,no effect on spontaneous ambulatory locomotion
same,effect of Ro 15-1788 on DNF anxiolytic effect,"mice [3]; mice, DNF 30 μg/kg + Ro 15-1788 1 mg/kg, listed as DNF, 1 mg/kg",blocked by the injection of Ro 15-1788; also recorded: blocked by the administration of the selective benzodiazepine antagonist Ro 15-1788
same,total arm entries,"mice [3]; mice, i.p., 30 μg/kg",No differences were observed in the total arm entries
same,percentage of entries in the open arms,"mice [3]; mice, i.p., 30 μg/kg, p<0.01",increased the percentage of entries in the open arms
same,anxiolytic potency in comparison to DZ,mice [3]; ratio to diazepam,30 times
same,selectivity ratio,[4],100 to 300
same,latency or sleeping time (in words),mice [5]; 1 mg/kg,did not change the latency or the sleeping time
same,Sleeping Time,"mice [5]; DNF 1 mg/kg + TP 22 mg/kg, n=7",207 (20/600) s
same,Latency,"mice [5]; DNF 1 mg/kg + TP 22 mg/kg, n=7",230 (164/300) s
same,Latency,"mice [5]; DNF 3 mg/kg + TP 22 mg/kg, n=12",237 (202/293) s
same,Sleeping Time,"mice [5]; DNF 3 mg/kg + TP 22 mg/kg, n=12, p<0.05",1277 (248/1800) s
same,latency to sleep (in words),"mice [5]; i.p., 3 mg/kg",No changes were observed in latency to sleep
same,sleeping time (in words),"mice [5]; i.p., 3 mg/kg, p<0.05",augmented the sleeping time
same,% of convulsing mice,"mice [6]; DNF 0.03 mg/kg, n=6",100%
same,% of convulsing mice,"mice [6]; DNF 0.1 mg/kg, n=12",75%
same,% of convulsing mice,"mice [6]; DNF 0.3 mg/kg, n=15",80%
same,% of convulsing mice,"mice [6]; DNF 1.0 mg/kg, n=13",92.4%
same,% of convulsing mice,"mice [6]; DNF 3.0 mg/kg, n=5",100%
same,% of convulsing mice,"mice [6]; DNF 6.0 mg/kg, n=7",100%
same,prevention of PTZ-induced seizures,"mice [6]; mice, 30 μg/kg-6 mg/kg, PTZ 200 mg/kg",did not prevent the seizures
same,anticonvulsant effects,mice [6]; up to 10 mg/kg,did not evidence anticonvulsant
same,tail-flick latency (TFL),"rats; rats, 100 μg/kg, 1 h after i.p., median (interquartile), n=11, vehicle 3.2 s",3.5 s
same,TFL (in words),"rats; rats, i.p., 100 μg/kg",did not alter TFL
same,analgesic effects,rats; up to 10 mg/kg as worded,"did not evidence anticonvulsant, myorelaxant, amnesic or analgesic effects"
